The text below walks through data of patent US12187742B2 (XRAD Therapeutics, Inc., priority 2018, dated 2025).

Structures can show the parent of a compound that is named as a salt.

ATM, sequence (Q13315 whole entry): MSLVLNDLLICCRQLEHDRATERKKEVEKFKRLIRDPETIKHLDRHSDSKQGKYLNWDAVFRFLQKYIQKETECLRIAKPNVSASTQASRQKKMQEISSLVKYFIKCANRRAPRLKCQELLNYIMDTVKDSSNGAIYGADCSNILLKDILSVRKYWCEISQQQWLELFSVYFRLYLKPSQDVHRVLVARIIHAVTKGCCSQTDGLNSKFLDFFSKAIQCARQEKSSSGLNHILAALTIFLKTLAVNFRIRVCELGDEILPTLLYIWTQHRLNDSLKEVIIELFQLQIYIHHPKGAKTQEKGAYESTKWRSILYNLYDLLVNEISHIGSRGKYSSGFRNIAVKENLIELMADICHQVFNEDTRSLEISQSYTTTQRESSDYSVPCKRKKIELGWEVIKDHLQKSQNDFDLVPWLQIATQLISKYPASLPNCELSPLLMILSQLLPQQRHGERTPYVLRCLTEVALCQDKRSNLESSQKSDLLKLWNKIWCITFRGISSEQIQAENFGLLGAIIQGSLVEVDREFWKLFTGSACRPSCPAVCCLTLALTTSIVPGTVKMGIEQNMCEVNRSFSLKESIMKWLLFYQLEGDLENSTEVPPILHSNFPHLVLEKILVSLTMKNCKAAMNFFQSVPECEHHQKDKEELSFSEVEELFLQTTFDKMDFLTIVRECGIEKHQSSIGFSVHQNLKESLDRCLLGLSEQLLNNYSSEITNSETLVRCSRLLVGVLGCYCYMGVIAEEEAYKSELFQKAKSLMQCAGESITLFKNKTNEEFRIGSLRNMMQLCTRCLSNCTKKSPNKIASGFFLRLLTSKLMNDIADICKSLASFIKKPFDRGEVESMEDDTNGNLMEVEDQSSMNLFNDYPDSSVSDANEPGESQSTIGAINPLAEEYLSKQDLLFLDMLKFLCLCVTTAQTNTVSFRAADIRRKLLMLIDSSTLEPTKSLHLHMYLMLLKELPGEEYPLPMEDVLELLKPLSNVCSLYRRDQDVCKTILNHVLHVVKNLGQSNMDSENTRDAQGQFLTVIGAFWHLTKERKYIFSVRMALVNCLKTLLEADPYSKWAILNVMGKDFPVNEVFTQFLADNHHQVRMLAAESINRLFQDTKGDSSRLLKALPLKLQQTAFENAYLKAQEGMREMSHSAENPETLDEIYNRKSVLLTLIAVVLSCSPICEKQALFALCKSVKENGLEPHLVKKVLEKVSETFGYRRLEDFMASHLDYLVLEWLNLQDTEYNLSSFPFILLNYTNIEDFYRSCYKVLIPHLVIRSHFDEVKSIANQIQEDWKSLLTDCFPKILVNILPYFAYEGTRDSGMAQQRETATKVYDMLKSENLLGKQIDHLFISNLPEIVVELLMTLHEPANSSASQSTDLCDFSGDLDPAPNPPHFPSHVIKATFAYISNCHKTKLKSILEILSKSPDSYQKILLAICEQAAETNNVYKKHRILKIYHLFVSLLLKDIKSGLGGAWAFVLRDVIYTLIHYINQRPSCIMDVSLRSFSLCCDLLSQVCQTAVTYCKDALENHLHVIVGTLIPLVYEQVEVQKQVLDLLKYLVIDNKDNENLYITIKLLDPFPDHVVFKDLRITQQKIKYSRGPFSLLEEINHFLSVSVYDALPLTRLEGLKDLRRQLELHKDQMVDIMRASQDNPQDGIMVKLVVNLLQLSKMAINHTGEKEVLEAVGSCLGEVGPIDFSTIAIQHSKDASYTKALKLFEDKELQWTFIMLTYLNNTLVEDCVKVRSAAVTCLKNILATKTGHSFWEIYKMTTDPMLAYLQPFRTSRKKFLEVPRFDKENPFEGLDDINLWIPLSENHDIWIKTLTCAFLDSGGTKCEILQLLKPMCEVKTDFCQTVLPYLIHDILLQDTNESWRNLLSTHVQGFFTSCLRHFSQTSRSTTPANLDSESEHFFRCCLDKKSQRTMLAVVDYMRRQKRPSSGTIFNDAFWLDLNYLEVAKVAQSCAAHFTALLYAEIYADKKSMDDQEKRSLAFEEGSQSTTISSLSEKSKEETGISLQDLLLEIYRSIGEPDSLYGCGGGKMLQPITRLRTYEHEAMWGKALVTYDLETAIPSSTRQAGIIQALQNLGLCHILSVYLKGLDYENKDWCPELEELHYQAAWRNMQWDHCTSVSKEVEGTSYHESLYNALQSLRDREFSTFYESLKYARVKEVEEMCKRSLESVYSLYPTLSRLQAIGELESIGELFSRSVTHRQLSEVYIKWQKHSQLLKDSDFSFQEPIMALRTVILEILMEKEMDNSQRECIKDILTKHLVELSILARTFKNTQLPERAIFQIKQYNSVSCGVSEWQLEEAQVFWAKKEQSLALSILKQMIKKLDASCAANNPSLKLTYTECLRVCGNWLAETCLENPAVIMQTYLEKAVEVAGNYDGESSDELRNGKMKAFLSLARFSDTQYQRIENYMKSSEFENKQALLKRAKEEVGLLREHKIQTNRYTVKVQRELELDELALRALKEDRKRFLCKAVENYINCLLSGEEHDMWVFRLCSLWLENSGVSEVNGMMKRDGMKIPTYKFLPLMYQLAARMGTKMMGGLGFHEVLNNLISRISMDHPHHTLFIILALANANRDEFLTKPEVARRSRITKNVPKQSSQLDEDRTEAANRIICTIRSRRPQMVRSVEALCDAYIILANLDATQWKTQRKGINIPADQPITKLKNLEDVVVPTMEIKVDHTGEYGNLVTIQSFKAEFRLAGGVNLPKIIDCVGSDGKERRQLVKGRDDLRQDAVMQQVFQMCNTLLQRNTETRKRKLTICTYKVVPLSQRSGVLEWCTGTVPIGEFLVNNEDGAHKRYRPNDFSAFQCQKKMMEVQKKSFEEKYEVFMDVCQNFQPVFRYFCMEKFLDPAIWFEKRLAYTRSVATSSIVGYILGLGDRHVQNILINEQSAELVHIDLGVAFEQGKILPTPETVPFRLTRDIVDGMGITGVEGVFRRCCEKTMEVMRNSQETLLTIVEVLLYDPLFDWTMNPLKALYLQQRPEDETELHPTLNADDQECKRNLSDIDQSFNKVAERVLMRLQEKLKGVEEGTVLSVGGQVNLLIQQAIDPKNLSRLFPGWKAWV

The first test addresses ATM (Homo sapiens (Human), UniProt Q13315). As to the kind of experiment: ATM in Cell Western Assay (pKAP1 in etoposide-treated MCF-7 cells). Format: cell-based. Particulars: MCF-7 cells, etoposide 100 μM, 1 hr, pKAP1 readout. In a few lines: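 Cells received compounds in a 10-dose, 3-fold series from a 1 μM final top concentration, then 100 μM etoposide, for 1 hr at 37° C. They were then fixed with paraformaldehyde and permeabilized with 0.1% Triton X-100. After immunostaining, plates were scanned on an infrared imager.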
`CN1C(=O)C2(CC2)c2c1cnc1ccc(-c3cnc(OCCCN4CCCC4)c(NS(=O)(=O)C4CC4)c3)cc21` [Example 60, N-(5-(3-Methyl-2′-oxo-2′,3′-dihydrospiro [cyclopropane-1,1′-pyrrolo[2,3-c]quinolin]-8′-yl)-2-(3-(pyrrolidin-1-yl)propoxy)pyridin-3-yl) cyclopropanesulfonamide] gave an IC50 of 0.001 to 0.1 µM. On the same count and under the same terms, the figure for `CN1C(=O)C2(CCC2)c2c1cnc1ccc(-c3cnc(OCC4CNC4)c(NS(C)(=O)=O)c3)cc21` [Example 310, N-(2-(Azetidin-3-ylmethoxy)-5-(3′-methyl-2′-oxo-2′,3′-dihydrospiro[cyclobutane-1,1′-pyrrole[2,3-c]quinolin]-8′-yl)pyridin-3-yl) methanesulfonamide hydrochloride] is greater than 0.1 µM. The same measure, in the same setting: then `CN(C)CCCOc1ncc(-c2ccc3ncc4c(c3c2)C2(CCC2)C(=O)N4C)cc1NS(=O)(=O)CS(C)(=O)=O` [Example 274, N-(2-(3-(Dimethylamino)propoxy)-5-(3′-methyl-2′-oxo-2′,3′-dihydrospiro[cyclobutane-1,1′-pyrrolo[2,3-c]quinolin]-8′-yl)pyridin-3-yl)-1-(methylsulfonyl)methanesulfonamide], with 0.001 to 0.1 µM. The molecule `CN(C)CCCOc1ncc(-c2ccc3ncc4c(c3c2)C2(CC2)C(=O)N4C)cc1-c1ccccc1` [Example 72, 8′-(6-(3-(Dimethylamino)propoxy)-5-phenylpyridin-3-yl)-3′-methylspiro[cyclopropane-1,1′-pyrrolo[2,3-c]quinolin]-2′(3′-H)-one] came in with a half-inhibitory concentration (IC50) greater than 0.1 µM. Still for that read-out and setting: the figure for `CN1C(=O)C2(CC2)c2c1cnc1ccc(-c3cnc(Cl)c(C(C)(C)O)c3)cc21` [Example 28, 8′-(6-Chloro-5-(2-hydroxypropan-2-yl)pyridin-3-yl)-3′-methylspiro[cyclopropane-1,1′-pyrrolo[2,3-c]quinolin]-2′(3′-H)-one] is greater than 0.1 µM; for `CC(C)N1C(=O)C2(CC2)c2c1cnc1ccc(-c3cnc(OCCCN(C)C)c(NS(=O)(=O)c4ccccc4)c3)cc21` [Example 31, N-(2-(3-(Dimethylamino)propoxy)-5-(3′-isopropyl-2′-oxo-2′,3′-dihydrospiro [cyclopropane-1,1′-pyrrolo[2,3-c]quinolin]-8′-yl)pyridin-3-yl) benzenesulfonamide] it is greater than 0.1 µM; for `CN1C(=O)C2(CCC2)c2c1cnc1ccc(-c3cnc(OCCCN4CC(F)(F)C4)c(NS(C)(=O)=O)c3)cc21` [Example 307, N-(2-(3-(3,3-Difluoroazetidin-1-yl)propoxy)-5-(3′-methyl-2′-oxo-2′,3′-dihydrospiro[cyclobutane-1,1′-pyrrolo[2,3-c]quinolin]-8′-yl)pyridin-3-yl) methanesulfonamide formate] it is greater than 0.1 µM. In the case of `CC1CCN(c2ncc(-c3ccc4ncc5c(c4c3)C3(CCC3)C(=O)N5C)cc2NS(C)(=O)=O)CC1` [Example 260, N-(5-(3′-Methyl-2′-oxo-2′,3′-dihydrospiro[cyclobutane-1,1′-pyrrolo[2,3-c]quinolin]-8′-yl)-2-(4-methylpiperidin-l-yl)Pyridin-3-yl)methanesulfonamide], the IC50 is greater than 0.1 µM. For the molecule `CN(C)CCCOc1ncc(-c2ccc3ncc4c(c3c2)C2(CC(=O)C2)C(=O)N4C)cc1NS(C)(=O)=O` [Example 258, N-(2-(3-(Dimethylamino)propoxy)-5-(3′-methyl-2′,3′-dioxo-2′,3′-dihydrospiro [cyclobutane-1,1′-pyrrolo[2,3-c]quinolin]-8′-yl)pyridin-3-yl)methanesulfonamide], the IC50 lay in the range of 0.001 to 0.1 µM.

Consider `CN(C)CCCOc1ncc(-c2ccc3ncc4c(c3c2)C2(CCC2)C(=O)N4C)cc1NS(=O)(=O)c1cncc(C#N)c1` [Example 174, 5-Cyano-N-(2-(3-(dimethylamino)propoxy)-5-(3′-methyl-2′-oxo-2′,3′-dihydrospiro[cyclobulane-1,1′-pyrrolo[2,3-c]quinolin]-8′-yl)pyridin-3-yl)pyridine-3-sulfonamide hydrochloride], for which the IC50 lay in the range of 0.001 to 0.1 µM.

The same test, now with this note: pKAP1 in etoposide-treated MCF-7 cells.
For the molecule `CN(C)CCCOc1c(NS(C)(=O)=O)cc(-c2ccc3ncc4c(c3c2)C2(CCC2)C(=O)N4C)cc1C(=O)O` [Example 399, 2-(3-(Dimethylamino)propoxy)-5-(3′-methyl-2′-oxo-2′,3′-dihydrospiro[cyclobutane-1,1′-pyrrolo[2,3-c]quinolin]-8′-yl)-3-(methylsulfonamido)benzoic acid], the half-maximal inhibitory concentration (IC50) is greater than 0.1 µM. Consider `CC(C)NCCOc1ncc(-c2cc3c4c(cnc3cc2F)N(C)C(=O)C42CN(C(=O)c3ccccc3)C2)cc1NS(C)(=O)=O` [Example 516, N-(5-(1-Benzoyl-7′-fluoro-3′-methyl-2′-oxo-2′,3′-dihydrospiro[azetidine-3,1′-pyrrolo[2,3-c]quinolin]-8′-yl)-2-(2-(isopropylamino)ethoxy)pyridin-3-yl)methanesulfonamide], for which the 50% inhibitory concentration (IC50) is greater than 0.1 µM. Same read-out and setting: the figure for `CC(C)NCCOc1ncc(-c2ccc3ncc4c(c3c2F)C2(CCC2)C(=O)N4C)cc1NS(C)(=O)=O` [Example 556, N-(5-(9′-Fluoro-3′-methyl-2′-oxo-2′,3′-dihydrospiro[cyclobutane-1,1′-pyrrolo[2,3-c]quinolin]-8′-yl)-2-(2-(isopropylamino)ethoxy)pyridin-3-yl)methanesulfonamide hydrochloride] is 0.001 to 0.1 µM; for `CC(C)NCCOc1ncc(-c2cc3c(cc2F)ncc2c3[C@]3(C[C@@H](c4cccc(=O)[nH]4)C3)C(=O)N2C)cc1NS(C)(=O)=O` [Example 441, trans-N-(5-(7′-Fluoro-3′-methyl-2′-oxo-3-(6-oxo-1,6-dihydropyridin-2-yl)-2′,3′-dihydrospiro[cyclobutane-1,1′-pyrrolo[2,3-c]quinolin]-8′-yl)-2-(2-(isopropylamino)ethoxy)pyridin-3-yl)methanesulfonamide] it is greater than 0.1 µM; for `CC(=O)N1CC2(C1)C(=O)N(C)c1cnc3cc(F)c(-c4cnc(OCCNC(C)C)c(NS(C)(=O)=O)c4)cc3c12` [Example 511, N-(5-(1-Acetyl-7′-fluoro-3′-methyl-2′-oxo-2′,3′-dihydrospiro[azetidine-3,1′-pyrrolo[2,3-c]quinolin]-8′-yl)-2-(2-(isopropylamino)ethoxy)pyridin-3-yl)methanesulfonamide] it is greater than 0.1 µM.

In turn, `CN1C(=O)C2(CCC2)c2c1cnc1cc(F)c(-c3cnc(OCCNCC(F)(F)F)c(NS(C)(=O)=O)c3)cc21` [Example 378, N-(5-(7′-Fluoro-3′-methyl-2′-oxo-2′,3′-dihydrospiro [cyclobutane-1,1′-pyrrolo[2.3-c]quinolin]-8′-yl)-2-(2-((2,2,2-trifluoroethyl)amino)ethoxy)pyridin-3-yl) methanesulfonamide hydrochloride] had an IC50 greater than 0.1 µM.

Molecule `CCN1CC2(C1)C(=O)N(C)c1cnc3cc(F)c(-c4cnc(OCCNC(C)C)c(NS(C)(=O)=O)c4)cc3c12` [Example 482, N-(5-(1-Ethyl-7-fluoro-3′-methyl-2′-oxo-2′,3′-dihydrospiro[azetidine-3,1′-pyrrolo[2,3-c]quinolin]-8′-yl)-2-(2-(isopropylamino)ethoxy)pyridin-3-yl)methanesulfonamide] returned an IC50 of 0.001 to 0.1 µM. `CC(C)NCCOc1ncc(-c2cc3c(cc2F)ncc2c3[C@]3(C[C@H](c4ccc(F)cc4)C3)C(=O)N2C)cc1NS(C)(=O)=O` [Example 422, cis-N-(5-(7′-Fluoro-3-(4-fluorophenyl)-3′-methyl-2′-oxo-2′,3′-dihydrospiro[cyclobutane-1,1′-pyrrolo[2,3-c]quinolin]-8′-yl)-2-(2-(isopropylamino)ethoxy)pyridin-3-yl)methanesulfonamide] displayed a concentration for half-maximal inhibition (IC50) of 0.001 to 0.1 µM. On the same count and under the same terms, the figure for `CC(C)NCCOc1ncc(-c2cc3c4c(cnc3cc2F)N(C)C(=O)C42CN(C3CC3)C2)cc1NS(C)(=O)=O` [Example 496, N-(5-(1-Cyclopropyl-7′-fluoro-3′-methyl-2′-oxo-2′,3′-dihydrospiro[azetidine-3,1′-pyrrolo[2,3-c]quinolin]-8′-yl)-2-(2-(isopropylamino)ethoxy)pyridin-3-yl)methanesulfonamide] is 0.001 to 0.1 µM. Same read-out and setting: the figure for `CC(C)NCCOc1ncc(-c2cc3c4c(cnc3cc2F)N(C)C(=O)C42CN([C@H]3CC[C@H](O)CC3)C2)cc1NS(C)(=O)=O` [Example 505, N-(5-(7′-Fluoro-1-(trans-4-hydroxycyclohexyl)-3′-methyl-2′-oxo-2′,3′-dihydrospiro[azetidine-3,1′-pyrrolo[2,3-c]quinolin]-8′-yl)-2-(2-(isopropylamino)ethoxy)pyridin-3-yl)methanesulfonamide] is greater than 0.1 µM. On the same count and under the same terms, the figure for `CC(C)NCCOc1ncc(-c2cc3c4c(cnc3cc2F)N(C)C(=O)C42CN(c3nnnn3C)C2)cc1NS(C)(=O)=O` [Example 553, N-(5-(7′-Fluoro-3′-methyl-1-(1-methyl-1H-tetrazol-5-yl)-2′-oxo-2′,3′-dihydrospiro[azetidine-3,1′-pyrrolo[2,3-c]quinolin]-8′-yl)-2-(2-(isopropylamino)ethoxy)pyridin-3-yl)methanesulfonamide] is greater than 0.1 µM. `CC(C)NCCOc1ncc(-c2cc3c4c(cnc3cc2F)N(C)C(=O)C42CN(Cc3ccccc3)C2)cc1NS(C)(=O)=O` [Example 495, N-(5-(1-Benzyl-7-fluoro-3′-methyl-2′-oxo-2′,3′-dihydrospiro[azetidine-3,1′-pyrrolo[2,3-c]quinolin]-8′-yl)-2-(2-(isopropylamino)ethoxy)pyridin-3-yl)methanesulfonamide] yielded an IC50 of 0.001 to 0.1 µM. Same read-out and setting: then `CCCN1CC2(C1)C(=O)N(C)c1cnc3cc(F)c(-c4cnc(OCCNC(C)C)c(NS(C)(=O)=O)c4)cc3c12` [Example 488, N-(5-(7′-Fluoro-3′-methyl-2′-oxo-1-propyl-2′,3′-dihydrospiro[azetidine-3,1′-pyrrolo[2,3-c]quinolin]-8′-yl)-2-(2-(isopropylamino)ethoxy)pyridin-3-yl)methanesulfonamide], with 0.001 to 0.1 µM. With `CN(C)CCCOc1c(NS(C)(=O)=O)cc(-c2ccc3ncc4c(c3c2)C2(CCC2)C(=O)N4C)cc1C(N)=O` [Example 449, 2-(3-(Dimethylamino)propoxy)-5-(3′-methyl-2′-oxo-2′,3′-dihydrospiro[cyclobutane-1,1′-pyrrolo[2,3-c]quinolin]-8′-yl)-3-(methylsulfonamido)benzamide], the IC50 is 0.001 to 0.1 µM.
